From ChEMBL document CHEMBL5329192, “Synthesis, biological activities, and future perspectives of steroidal monocyclic pyridines” (RSC Med Chem, 2023) come the findings set out here.

The test system of series [1] is Respiratory syncytial virus. The experiment in a line: Antiviral activity against Respiratory syncytial virus infected in human HEp-2 cells assessed as inhibition of virus-induced cytopathic effect measured after 6 days by CellTiter-Glo assay. Format: functional, organism-based. To be noted: HEp-2, 144 h. On the technique in general: Protection from cytopathic effect is a common read-out in antiviral testing.

Series [2] is described as follows: Cytotoxicity against human HEp-2 cells assessed as reduction in cell viability incubated for 48 hrs by MTT assay. In kind it is toxicity, cell-based.
A short description of series [3]: Selectivity index, ratio of CC50 for cytotoxicity against human HEp-2 cells to EC50 for antiviral activity against Respiratory syncytial virus infected in human HEp-2 cells. Conditions: read-out: Ratio CC50/EC50. In kind it is toxicity, cell-based.
The test system of series [4] is ECa-109 cell line. The series is described as follows: Cytotoxicity against human EC109 cells assessed as reduction in cell growth incubated for 48 hrs by MTT assay. In kind it is functional, cell-based. To be noted: ECa-109, 48 h. In general terms: Tetrazolium dyes change colour on reduction, which living cells bring about.
For series [5], the system named is MGC-803. The experiment in a line: Cytotoxicity against human MGC-803 cells assessed as reduction in cell growth incubated for 48 hrs by MTT assay. Format: functional, cell-based. To be noted: MGC-803, 48 h.
Series [6] has as its system EC9706. The series is described as follows: Cytotoxicity against human EC9706 cells assessed as reduction in cell growth incubated for 48 hrs by MTT assay. Format: functional, cell-based. Conditions: EC9706, 48 h.

As usually defined, the EC50 is the concentration giving half of the maximal effect. As a reminder, the CC50 is the concentration giving 50% cytotoxicity. In the case of `NC(=O)c1ncn([C@@H]2O[C@H](CO)[C@@H](O)[C@H]2O)n1` [RIBAVIRIN], the EC50 in series [1] was found to be 20.1 µM. In addition, in series [2], the CC50 at 48 h was 653 µM. The selectivity ratio in series [3] came to 32.5.
Turning to `CC(=O)O[C@H]1CC[C@@]2(C)C(=CC[C@H]3[C@@H]4CC[C@H](c5cc(-c6ccccc6Cl)c(C#N)c(N)n5)[C@@]4(C)CC[C@@H]32)C1`, in series [1], the EC50 turned out to be 14.1 µM. The CC50 at 48 h in series [2] was determined as 303 µM. Besides, the selectivity ratio in series [3] was determined as 21.4.
As a reminder, the IC50 is the concentration needed to halve the response being measured. `CC(=O)O[C@H]1CC[C@@]2(C)C(=CC[C@@H]3[C@@H]2CC[C@]2(C)c4nc(N)c(C#N)cc4C[C@@H]32)C1`: the figures for the IC50 in series [4], in series [5] and in series [6] were 20.5 µM, 16.3 µM and 58.4 µM, respectively.
With `CC(=O)O[C@H]1CC[C@@]2(C)C(=CC[C@H]3[C@@H]4CC[C@H](c5cc(-c6ccccc6F)c(C#N)c(N)n5)[C@@]4(C)CC[C@@H]32)C1`, the EC50 in series [1] is 12.4 µM. Also, the CC50 at 48 h in series [2] came out at 288 µM. The selectivity ratio in series [3] was determined as 23.2.
`CC(=O)O[C@H]1CC[C@@]2(C)C(=CC[C@H]3[C@@H]4CC[C@H](c5cc(-c6ccnc(Br)c6)c(C#N)c(N)n5)[C@@]4(C)CC[C@@H]32)C1`: the concentration giving a half-maximal response (EC50) in series [1] was 3.13 µM. Moreover, the CC50 at 48 h in series [2] worked out at 539 µM. Besides, the selectivity ratio in series [3] was 172.
